{"source": "patent US20190209548A1", "about": "“LINKED DIARYL COMPOUNDS WITH ANTICANCER PROPERTIES AND METHODS OF USING THE SAME” (University of Maryland, College Park, priority 2014, published 2019)", "key": {"[1]": {"test_system": "c-kit1", "test": "NMM displacement assay", "format": "binding", "conditions": "NMM 1 μM, ligand 0-200 μM", "procedure": "Displacement assays with the G-quadruplex binder, NMM. In these assays, the triazene ligand was used at various concentrations: 0, 5, 10, 20, 50, 100, and 200 μM; and the DNA concentration was kept at 1 μM, whereas the concentration of NMM was 1 μM. The experiments were performed in 50 mM Tris-HCl buffer (pH 7.5) in the presence of 50 mM KCl. The excitation wavelength used for NMM was 400 nm and the emission was monitored between 550 and 700 nm (slit width=5 nm, scan speed=600 nm/min, averaging time=0.1 sec, data interval=1 nm, PMT detector voltage=600 V, measurement temperature=20° C.). The sample was initially heated to 95° C. and kept at this temperature for 5 min without ligand or NMM and then cooled down to room temperature for 15 min. Subsequently, the triazene ligand was added to the DNA and incubated for ˜12 h."}, "[2]": {"test_system": "27mer WT bcl-2", "test": "CD titration with bcl-2 G-quadruplex", "format": "binding", "conditions": "K+ Tris buffer", "procedure": "(§1) Circular Dichroism (CD). CD titration experiments were performed with an Olis DSM-20 spectropolarimeter (Bogart, Ga.). All measurements were done at 25° C. using a 1 cm quartz cuvette and covering a spectral range of 220-420 nm. […] Stock solutions of the ligand were added in small amount to reach a molar ratio of 1:1, 3:1, 6:1, and 10:1 of ligand per equivalence of DNA."}, "[3]": {"test_system": "24mer WT c-myc", "test": "CD titration with c-myc G-quadruplex", "format": "binding", "conditions": "K+ Tris buffer", "procedure": "as §1"}, "[4]": {"test_system": "hTel22", "test": "CD titration with hTel22", "format": "binding, human", "conditions": "K+ Tris buffer", "procedure": "as §1"}, "[5]": {"test_system": "B-DNAs containing the AT rich sequence", "conditions": "measured by NMR, Jenkins et al.; cited from earlier work"}, "[6]": {"test_system": "G-quadruplexes", "test": "Binding to G-quadruplexes, general statements", "conditions": "all of the tested G-quadruplexes, ITC, compare Tables 2 and 3"}, "[7]": {"test_system": "hTel22", "test": "ESI mass spectrometry of hTel22 with excess ligand", "format": "binding, human", "conditions": "free DNA present even in excess ligand", "procedure": "Electrospray Ionization Mass Spectrometry. ESI-MS experiments were carried out on a Bruker MicrOTOFQ mass spectrometer. Data acquisition was set to operate in negative ion mode. All experiments were performed in 50 mM ammonium acetate buffer containing 20% HPLC grade methanol and adjusted with 1 N KOH solution to reach pH of 7.0. The WT hTel 22-mer G-quadruplex sample was prepared at a concentration of approximately 10 μM in the ammonium acetate buffer and was exhaustedly dialyzed. Stock solutions of DMZ and Triazene-1 were prepared in the final dialysate buffer at concentration as high as 300 μM. The ESI-MS samples were prepared by mixing the DNA and ligand stock solutions to yield a mixture containing excess of each ligand per equivalence of DNA. The MS capillary voltage was set to +3500 V, dry N2 gas flow was adjusted to 0.5 L/min at 110° C., and the G-quadruplex/ligand samples were directly infused into the MS by using a kD Scientific syringe pump set to a flow rate of 200 μL/hour. Data processing was performed by using Bruker Daltonics Data Analysis program."}, "[8]": {"test_system": "c-MYC G-quadruplex", "test": "FRET melting in competition with duplex DNA", "format": "binding", "conditions": "1 μM ligand, 0.2 μM c-MYC, up to 500 equivalence of double-stranded DNA", "procedure": "FRET DNA melting in competition with duplex DNA. FRET competition assay was performed by adding 2 μM, 20 μM and 100 μM double-stranded competitor 26ds DNA (5′-CAATCGGATCGAATTCGATCCGATTG-3′) (SEQ ID NO: 16) in the presence of 0.2 μM c-MYC G-quadruplex and 1 μM DMZ analogs. Both c-MYC G-quadruplex and 26ds DNA were diluted in 60 mM potassium cacodylate buffer (pH 7.2) and then annealed by heating at 85° C. for 10 min followed by cooling to room temperature in the heating block. Experiments were performed in triplicate."}}, "data": [{"smiles": "N=C(N)c1ccc(/N=N/Nc2ccc(C(=N)N)cc2)cc1", "note": "[DMZ, Diminazene aceturate, reference compound]", "values": [{"measurement": "competition with NMM for c-kit1 binding", "setting": "[1]", "value": "could indeed compete with NMM for c-kit1 binding"}, {"measurement": "CD signal of G-quadruplex upon complexation", "setting": "[2]", "value": "dramatically decreased"}, {"measurement": "CD signal of G-quadruplex upon complexation", "setting": "[3]", "value": "dramatically decreased"}, {"measurement": "effect on structure of G-quadruplex (CD)", "setting": "[4]", "value": "very little effect on the structure"}, {"measurement": "Kavg, binding affinity", "setting": "[5]", "value": "≈ 1×10^6 M^−1"}]}, {"smiles": "N=C(N)c1ccc(NN=Nc2ccccc2)cc1", "note": "[DMZ1]", "values": [{"measurement": "binding less than DMZ", "setting": "[6]", "value": "4-5 orders of magnitude"}, {"measurement": "binding affinity in words", "setting": "[7]", "value": "low binding affinity"}, {"measurement": "effect of competitor double-stranded DNA on Tm of c-MYC", "setting": "[8]", "value": "did not affect the Tm of c-MYC"}]}]}
